In patent US20230120597A1, “CO-AGONISTS AT GLP-1 AND GIP RECEPTORS SUITABLE FOR ORAL DELIVERY” (Novo Nordisk A/S, priority 2020, published 2023):
Marks after values point to notes of the source that are not given here. Starred links: 1 amine or outer side, 2 acyl side, 3 side chain; linkers in the order of their positions; H or OH if unused. Non-standard residues stand in square brackets, D forms with d. Residues, ends and D or L forms follow the SMILES beside them. Groups on a side chain read outwards from the residue. *: point of attachment. C18 diacid = O=C(O)CCCCCCCCCCCCCCCCC(=O)*; γGlu = O=C(O)[C@H](CCC(=O)[*:2])N[*:1]; εLys = N[C@@H](CCCCN[*:1])C(=O)[*:2]; AEEA = NCCOCCOCC(=O)O; Aib = CC(C)(N)C(=O)O

Test: Pharmacokinetic study in dogs, oral dosing of tablet compositions with SNAC
Format: in vivo, Beagle dogs
Experimental: The purpose of this example is to determine the half-life and plasma exposure in vivo of the compounds of the present invention after p.o. administration to beagle dogs, i.e. the terminal half-life and concentration of test substance that reaches circulation with time. This is done in a pharmacokinetic (PK) study, where these parameters of the compound in question are determined. By terminal half-life is generally meant the period of time it takes to halve a certain plasma concentration, measured after the initial distribution phase.
The amount of SNAC in the tablet composition was 100-300 mg, the amount of magnesium stearate in the tablet composition was 7.7 mg, and the target amount of each test substance in the tablet composition was 3-4 mg.
Male beagle dogs, 1-7 years of age and weighing 9-17 kg during the study period, were included in the study. The dogs were dosed in a fasting state. The dogs were group housed in pens (12 hours light: 12 hours dark), and fed individually and restrictedly once daily with Royal Canin Medium Adult dog food (Royal Canin Products, China Branch, or Brogaarden A/S, Denmark). The dogs were used for repeated PK studies with a suitable wash-out period between successive dosing. An appropriate acclimatization period was given prior to initiation of the first PK study. All handling, dosing, and blood sampling of the animals were performed by trained and skilled staff. Before the studies, the dogs were fasted overnight and from 0 to 4 hours after dosing. The dogs were restricted to water 1 hour before dosing until 4 hours after dosing, but otherwise had ad libitum access to water during the whole period.
The compositions were administered by a single oral dosing to the dogs in groups of 6-8 dogs. […] The mouth was then closed, and 10 mL of tap water was given by syringe or gavage to facilitate swallowing of the tablet.
One blood sample was drawn before dosing, and additional samples were drawn at predefined time points after dosing for up to 240 hours, such as up to 10 hours, to adequately cover the full plasma concentration-time absorption profile of the test substance. For each blood sample time point, approximately 0.8 mL of whole blood was collected in a 1.5 mL EDTA-coated tube, which was gently turned to mix the sample with EDTA. Blood samples were collected in EDTA buffer (8 mM) and then centrifuged at 4° C. 2000 g for 10 minutes. Plasma was pipetted into Micronic tubes on dry ice, and kept at −20° C. or lower until analysis. Blood samples were taken as appropriate, for example from a venflon in the cephalic vein in the front leg for the first 2 hours and then with syringe from the jugular vein for the rest of the time points. The first few drops were allowed to drain from the venflon to avoid heparin saline from the venflon in the sample.
All blood samples were collected into test tubes containing EDTA for stabilisation and kept on ice until centrifugation. Plasma was separated from whole blood by centrifugation and the plasma was stored at −20° C. or lower until analysis.
The plasma was analysed for test substance using LC-MS (Liquid Chromatography-Mass Spectrometry) as known to the person skilled in the art. […] RP-HPLC separation was achieved using a linear gradient of 1:1 acetonitrile/methanol in 1% aqueous formic acid using either: a Phenomenex Onyx Monolithic C18 column (50×2.0 mm) and a flow rate of 0.8 mL/min at 30° C.; or an Agilent Poroshell 120 SB-C18 column (50×2.1 mm, 2.7 μm) at a flow rate of 0.4 mL/min at 60° C. The mass spectrometer was operated in either positive ionization SIM mode or positive ionization PRM mode.
For each individual animal, a plasma concentration-time profile was analysed by a non-compartmental model in Pharsight Phoenix WinNonLin ver.

SMILES	AUC/Dose (oral tablet, SNAC 300 mg, test substance 3 mg, Beagle dogs, arithmetic mean)	AUC/Dose (dog, in vivo, po)
CC[C@H](C)[C@H](NC(=O)[C@H](Cc1ccccc1)NC(=O)[C@H](CCC(=O)O)NC(=O)[C@H](CCCNC(=N)N)NC(=O)[C@H](C)NC(=O)[C@H](C)NC(=O)[C@H](CCC(N)=O)NC(=O)[C@H](CCCCNC(=O)[C@@H](N)CCCCNC(=O)[C@@H](N)CCCCNC(=O)CC[C@H](NC(=O)CCCCCCCCCCCCCCCCC(=O)O)C(=O)O)NC(=O)[C@H](CCC(=O)O)NC(=O)[C@H](CC(C)C)NC(=O)[C@H](CC(C)C)NC(=O)[C@@H](NC(=O)[C@H](CO)NC(=O)[C@H](Cc1ccc(O)cc1)NC(=O)[C@H](CC(=O)O)NC(=O)[C@H](CO)NC(=O)[C@@H](NC(=O)[C@H](Cc1ccccc1)NC(=O)[C@@H](NC(=O)CNC(=O)[C@H](CCC(=O)O)NC(=O)C(C)(C)NC(=O)[C@@H](N)Cc1ccc(O)cc1)[C@@H](C)O)[C@@H](C)O)[C@@H](C)CC)C(=O)N[C@@H](CCC(=O)O)C(=O)N[C@@H](Cc1c[nH]c2ccccc12)C(=O)N[C@@H](CC(C)C)C(=O)N[C@@H](CC(C)C)C(=O)N[C@@H](CCCNC(=N)N)C(=O)NCC(=O)NCC(=O)N1CCC[C@H]1C(=O)N[C@@H](CCC(=O)O)C(=O)N[C@@H](CO)C(=O)NCC(=O)N[C@@H](C)C(=O)N1CCC[C@H]1C(=O)N1CCC[C@H]1C(=O)N1CCC[C@H]1C(=O)N[C@@H](CO)C(=O)O [Compound No. 28] (H-Y[Aib]EGTFTSDYSILLEK([εLys-εLys-γGlu-C18 diacid])QAAREFIEWLLRGGPESGAPPPS-OH)	18.6** kg*h/L	
CC[C@H](C)[C@H](NC(=O)[C@H](Cc1ccccc1)NC(=O)[C@H](CCC(=O)O)NC(=O)[C@H](CCC(N)=O)NC(=O)[C@H](C)NC(=O)[C@H](C)NC(=O)[C@H](CCC(N)=O)NC(=O)[C@H](CCCCNC(=O)[C@@H](N)CCCCNC(=O)[C@@H](N)CCCCNC(=O)CC[C@H](NC(=O)CCCCCCCCCCCCCCCCC(=O)O)C(=O)O)NC(=O)[C@H](CCC(=O)O)NC(=O)[C@H](CC(C)C)NC(=O)[C@H](CC(C)C)NC(=O)[C@@H](NC(=O)[C@H](CO)NC(=O)[C@H](Cc1ccc(O)cc1)NC(=O)[C@H](CC(=O)O)NC(=O)[C@H](CO)NC(=O)[C@@H](NC(=O)[C@H](Cc1ccccc1)NC(=O)[C@@H](NC(=O)CNC(=O)[C@H](CCC(=O)O)NC(=O)C(C)(C)NC(=O)[C@@H](N)Cc1ccc(O)cc1)[C@@H](C)O)[C@@H](C)O)[C@@H](C)CC)C(=O)N[C@@H](CCC(=O)O)C(=O)N[C@@H](Cc1c[nH]c2ccccc12)C(=O)N[C@@H](CC(C)C)C(=O)N[C@@H](CC(C)C)C(=O)N[C@@H](C)C(=O)NCC(=O)NCC(=O)N1CCC[C@H]1C(=O)N[C@@H](CO)C(=O)N[C@@H](CO)C(=O)NCC(=O)N[C@@H](C)C(=O)N1CCC[C@H]1C(=O)N1CCC[C@H]1C(=O)N1CCC[C@H]1C(=O)N[C@@H](CO)C(=O)O [Compound No. 29] (H-Y[Aib]EGTFTSDYSILLEK([εLys-εLys-γGlu-C18 diacid])QAAQEFIEWLLAGGPSSGAPPPS-OH)		16.6** kg*h/L
CC[C@H](C)[C@H](NC(=O)[C@H](Cc1ccccc1)NC(=O)[C@H](CCC(=O)O)NC(=O)[C@H](Cc1c[nH]cn1)NC(=O)[C@H](C)NC(=O)[C@H](C)NC(=O)[C@H](CCC(N)=O)NC(=O)[C@H](CCCCNC(=O)[C@@H](N)CCCCNC(=O)[C@@H](N)CCCCNC(=O)CC[C@H](NC(=O)CCCCCCCCCCCCCCCCC(=O)O)C(=O)O)NC(=O)[C@H](CCC(=O)O)NC(=O)[C@H](CC(C)C)NC(=O)[C@H](CC(C)C)NC(=O)[C@@H](NC(=O)[C@H](CO)NC(=O)[C@H](Cc1ccc(O)cc1)NC(=O)[C@H](CC(=O)O)NC(=O)[C@H](CO)NC(=O)[C@@H](NC(=O)[C@H](Cc1ccccc1)NC(=O)[C@@H](NC(=O)CNC(=O)[C@H](CCC(=O)O)NC(=O)C(C)(C)NC(=O)[C@@H](N)Cc1ccc(O)cc1)[C@@H](C)O)[C@@H](C)O)[C@@H](C)CC)C(=O)N[C@@H](CCC(=O)O)C(=O)N[C@@H](Cc1c[nH]c2ccccc12)C(=O)N[C@@H](CC(C)C)C(=O)N[C@@H](CC(C)C)C(=O)N[C@@H](C)C(=O)NCC(=O)NCC(=O)N1CCC[C@H]1C(=O)N[C@@H](CO)C(=O)N[C@@H](CO)C(=O)NCC(=O)N[C@@H](C)C(=O)N1CCC[C@H]1C(=O)N1CCC[C@H]1C(=O)N1CCC[C@H]1C(=O)N[C@@H](CO)C(=O)O [Compound No. 30] (H-Y[Aib]EGTFTSDYSILLEK([εLys-εLys-γGlu-C18 diacid])QAAHEFIEWLLAGGPSSGAPPPS-OH; N-terminus assumed)		6.5 kg·h/L
CC[C@H](C)[C@H](NC(=O)[C@H](Cc1ccccc1)NC(=O)[C@H](CCC(=O)O)NC(=O)[C@H](CCCNC(=N)N)NC(=O)[C@H](C)NC(=O)[C@H](C)NC(=O)[C@H](CCC(N)=O)NC(=O)[C@H](CCCCNC(=O)[C@@H](N)CCCCNC(=O)[C@@H](N)CCCCNC(=O)CC[C@H](NC(=O)CCCCCCCCCCCCCCCCC(=O)O)C(=O)O)NC(=O)[C@H](CCC(=O)O)NC(=O)[C@H](CC(C)C)NC(=O)[C@H](CC(C)C)NC(=O)[C@@H](NC(=O)[C@H](CO)NC(=O)[C@H](Cc1ccc(O)cc1)NC(=O)[C@H](CC(=O)O)NC(=O)[C@H](CO)NC(=O)[C@@H](NC(=O)[C@H](Cc1ccccc1)NC(=O)[C@@H](NC(=O)CNC(=O)[C@H](CCC(=O)O)NC(=O)C(C)(C)NC(=O)[C@@H](N)Cc1ccc(O)cc1)[C@@H](C)O)[C@@H](C)O)[C@@H](C)CC)C(=O)N[C@@H](CCC(=O)O)C(=O)N[C@@H](Cc1c[nH]c2ccccc12)C(=O)N[C@@H](CC(C)C)C(=O)N[C@@H](CC(C)C)C(=O)N[C@@H](C)C(=O)NCC(=O)NCC(=O)N1CCC[C@H]1C(=O)N[C@@H](CO)C(=O)N[C@@H](CO)C(=O)NCC(=O)N[C@@H](C)C(=O)N1CCC[C@H]1C(=O)N1CCC[C@H]1C(=O)N1CCC[C@H]1C(=O)N[C@@H](CO)C(=O)O [Compound No. 31] (H-Y[Aib]EGTFTSDYSILLEK([εLys-εLys-γGlu-C18 diacid])QAAREFIEWLLAGGPSSGAPPPS-OH; N-terminus assumed)		17.9** kg*h/L
CC[C@H](C)[C@H](NC(=O)[C@H](Cc1ccccc1)NC(=O)[C@H](CCC(=O)O)NC(=O)[C@H](CCCNC(=N)N)NC(=O)[C@H](C)NC(=O)[C@H](C)NC(=O)[C@H](CCC(N)=O)NC(=O)[C@H](CCCCNC(=O)COCCOCCNC(=O)COCCOCCNC(=O)CC[C@H](NC(=O)CCCCCCCCCCCCCCCCC(=O)O)C(=O)O)NC(=O)[C@H](CCC(=O)O)NC(=O)[C@H](CC(C)C)NC(=O)[C@H](CC(C)C)NC(=O)[C@@H](NC(=O)[C@H](CO)NC(=O)[C@H](Cc1ccc(O)cc1)NC(=O)[C@H](CC(=O)O)NC(=O)[C@H](CO)NC(=O)[C@@H](NC(=O)[C@H](Cc1ccccc1)NC(=O)[C@@H](NC(=O)CNC(=O)[C@H](CCC(=O)O)NC(=O)C(C)(C)NC(=O)[C@@H](N)Cc1ccc(O)cc1)[C@@H](C)O)[C@@H](C)O)[C@@H](C)CC)C(=O)N[C@@H](CCC(=O)O)C(=O)N[C@@H](Cc1c[nH]c2ccccc12)C(=O)N[C@@H](CC(C)C)C(=O)N[C@@H](CC(C)C)C(=O)N[C@@H](C)C(=O)NCC(=O)NCC(=O)N1CCC[C@H]1C(=O)N[C@@H](CO)C(=O)N[C@@H](CO)C(=O)NCC(=O)N[C@@H](C)C(=O)N1CCC[C@H]1C(=O)N1CCC[C@H]1C(=O)N1CCC[C@H]1C(=O)N[C@@H](CO)C(=O)O [Compound No. 32] (H-Y[Aib]EGTFTSDYSILLEK([AEEA-AEEA-γGlu-C18 diacid])QAAREFIEWLLAGGPSSGAPPPS-OH; N-terminus assumed)		25.3* kg*h/L
